This is an account of results in PubChem BioAssay AID1552 (Sanford-Burnham Center for Chemical Genomics, 2009).

The Kd is the equilibrium constant for the complex coming apart.

For this experiment, the target named is Ubiquitin-conjugating enzyme E2 N (Homo sapiens) (UniProt P61088). Nature of the experiment: UBE2N binders by NMR, biophysical, purified protein (AID 1552). The following applies: NMR binding to purified UBE2N.

The structures appear in SMILES notation. Calls of active or inactive are those of the source. No rule for the calls is given here. Where only a bound is given, the exact number is not on record here.

Ubiquitin-conjugating enzyme E2 N (Homo sapiens), sequence (P61088 whole entry, looked up): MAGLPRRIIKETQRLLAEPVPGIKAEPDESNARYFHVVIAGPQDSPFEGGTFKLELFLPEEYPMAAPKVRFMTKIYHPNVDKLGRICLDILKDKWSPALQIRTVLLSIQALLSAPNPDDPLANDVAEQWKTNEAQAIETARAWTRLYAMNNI

`Cn1c(=O)n(CC(=O)Nc2cccnc2)c2ccccc21`: the Kd is > 4 mM (inactive).

Turning to `O=C(Nc1ccc(Cl)cc1)N1CCCC1`, the Kd is > 4 mM (inactive).

Take `c1ccc(CCNc2ncnc3nc[nH]c23)cc1`: the Kd is > 4 mM (inactive).

For `OC1CCN(Cc2ccc[nH]2)CC1`, the Kd was > 4 mM (inactive).

Consider `O=C(NCCO)c1cc2ccccc2c(=O)s1`, for which the Kd is > 4 mM (inactive).

`COCC(=O)N1CCCc2ccccc21`: the Kd was > 4 mM (inactive).

Consider `O=S(=O)(c1cccc(Cl)c1)N1CCCC1`, for which the Kd was > 4 mM (inactive).

On to `COc1cc(O)c(C(=O)c2ccccc2)cc1O`, for which the Kd was > 4 mM (inactive).

As for `CN1C(=O)/C(=C\c2ccc[nH]2)SC1=S`, the Kd was > 4 mM (inactive).

On to `O=C(O)c1cccc2c1OCCCO2`, for which the Kd was > 4 mM (inactive).

On to `Oc1ccc2c(c1)OCC1(O)Cc3cc(O)c(O)cc3C21` (centres undefined), for which the Kd is > 4 mM (inactive).

In the case of `NNc1ncnc2sccc12`, the Kd is > 4 mM (inactive).

Turning to `O=C(Nc1cccc(Cl)c1)c1cnn2cccnc12`, the Kd is > 4 mM (inactive).

Take `O=C1c2ccccc2C(=O)N1OCc1ccccc1`: the Kd was > 4 mM (inactive).

Turning to `CCc1sc(C(=O)NC)cc1Br`, the Kd is > 4 mM (inactive).

With `CC(C)=CCOc1cc2oc(=O)ccc2cc1O`, the Kd was > 4 mM (inactive).

Turning to `COc1ccc(/C=C2/NC(=S)NC2=O)cc1`, the Kd was > 4 mM (inactive).

With `CC(=O)Oc1ccc(-c2nc(-c3cccnc3)no2)cc1`, the Kd is > 4 mM (inactive).

For the compound `C=C1C([C@]2(C)C(CC(=O)OC)[C@@](C)(COC(C)=O)OC(=O)C[C@@H]2OC(C)=O)[C@@H](OC=O)[C@H](OC(=O)C(OC(C)=O)C(C)CC)[C@@]2(C)[C@H](c3ccoc3)CC(=O)C12O` (some centres undefined), the Kd was > 4 mM (inactive).

As to `c1ccc(NCc2nc(-c3ccccc3)no2)cc1`, the Kd is > 4 mM (inactive).

Regarding `CC(C)c1ccc2c(c1)CCC1[C@](C)(CN)CCC[C@]21C` (some centres undefined), the Kd is > 4 mM (inactive).

As to `Cc1ccsc1/C=c1\sc2ncnn2c1=O`, the Kd was > 4 mM (inactive).

For `COc1cc(OC)c2c(=O)c(OC)c(-c3ccc(OC)c(OC)c3)oc2c1`, the Kd was > 4 mM (inactive).

Consider `Cc1nccc(-c2cccc(N)c2)n1`, for which the Kd is > 4 mM (inactive).

With `CN1CCn2c1nc(N1CCCCC1)nc2=O`, the Kd is > 4 mM (inactive).

Turning to `OCc1ccc(N2CCOCC2)cc1`, the Kd was > 4 mM (inactive).

`Nc1cc(=O)[nH]c(SCC(=O)NCc2ccccc2)n1`: the Kd was > 4 mM (inactive).

`CC(=O)Oc1c(C)cc(O)c2ccccc12`: the Kd was > 4 mM (inactive).

On to `CC(C)CCCC(C)C1CCC2C3CC(=O)[C@H]4C[C@@H](O)CC[C@]4(C)C3CC[C@]12C` (some centres undefined), for which the Kd is > 4 mM (inactive).

As to `O=S1(=O)CCC(NCCO)C1` (centres undefined), the Kd was > 4 mM (inactive).

In the case of `S=C(NCc1ccco1)NN1CCOCC1`, the Kd is > 4 mM (inactive).

`CC(C)(CO)NC(=O)c1ccccc1F`: the Kd is > 4 mM (inactive).

With `O=C1CSC(=Nc2cc(Cl)ccc2Cl)N1`, the Kd is > 4 mM (inactive).

Take `CC(=O)OC1CCC2(O)CC1(C)CCC1C2CC1(C)C` (centres undefined): the Kd was > 4 mM (inactive).

As for `Cc1ccc(SCc2cc(=O)n3[nH]cnc3n2)cc1`, the Kd was > 4 mM (inactive).

On to `NC(CC(=O)O)c1ccccc1` (centres undefined), for which the Kd was > 4 mM (inactive).

With `CC(=O)Nc1ccc(S(=O)(=O)N2CCN=C2C)cc1`, the Kd is > 4 mM (inactive).

With `O=CN1CCN(C(=O)c2ccccc2F)CC1`, the Kd was > 4 mM (inactive).

As to `Cc1c(C(=O)NCc2ccccn2)oc2ccccc12`, the Kd was > 4 mM (inactive).

With `CC(=O)Nc1ccn(Cc2c(F)cccc2Cl)n1`, the Kd was > 4 mM (inactive).

Consider `Cc1nnc(N2CCN(c3ccccc3)CC2)[nH]c1=O`, for which the Kd was > 4 mM (inactive).

As for `CC(=O)O[C@H]1CC[C@@]2(C)C(CC[C@]3(C)C2C(=O)C=C2C4[C@@H](C)[C@H](C)CC[C@]4(C(=O)O)CC[C@]23C)C1(C)C` (some centres undefined), the Kd is > 4 mM (inactive).

As for `O=C(NC12CC3CC(CC(C3)C1)C2)c1cnccn1`, the Kd was > 4 mM (inactive).

Take `Cc1c(C(=O)Nc2ccccc2)sc(N)c1C(N)=O`: the Kd was > 4 mM (inactive).

For `NC(=O)c1oc2ccccc2c1N`, the Kd was > 4 mM (inactive).

For `CC(=O)O[C@H]1C[C@@H](OC(C)=O)C(C)(C)C2C[C@@H](OC(C)=O)[C@]3(C)C(CC[C@@]4(C)[C@H](c5ccoc5)C(=O)[C@H]5O[C@]543)[C@]21C` (some centres undefined), the Kd was > 4 mM (inactive).

As for `S=C(c1ccc(N2CCOCC2)cc1)N1CCCCC1`, the Kd is > 4 mM (inactive).

As for `CSc1nc2cc(F)c(F)cc2n1C`, the Kd is > 4 mM (inactive).

In the case of `O=C(O)CS(=O)(=O)c1ccccc1`, the Kd was > 4 mM (inactive).

For the compound `COc1ccc(NS(=O)(=O)c2ccc(N)cc2)nn1`, the Kd is > 4 mM (inactive).

On to `COc1ccc(Cl)cc1-c1nc(-c2ccncc2)no1`, for which the Kd is > 4 mM (inactive).

As for `NCc1ccc2c(c1)OCCO2`, the Kd is > 4 mM (inactive).

Take `Cn1cc(Cl)c(C(=O)Nc2ccc(F)cc2F)n1`: the Kd was > 4 mM (inactive).

Consider `CCOC(=O)c1c[nH]c2c(F)cccc2c1=O`, for which the Kd is > 4 mM (inactive).

As to `OCc1ccc2nsnc2c1`, the Kd was > 4 mM (inactive).

Consider `O=C1C2CCCCC2C(=O)N1c1nccs1` (centres undefined), for which the Kd was > 4 mM (inactive).

Regarding `CC(=O)NS(=O)(=O)c1ccc(C)cc1`, the Kd was > 4 mM (inactive).

As to `CSc1nc(=O)[nH]c2c1CCC2`, the Kd is > 4 mM (inactive).

With `COc1cc(OC)c2c(c1)O[C@H](c1ccc(OC)c(OC)c1)[C@@H](O)C2`, the Kd is > 4 mM (inactive).

As to `CC(C)(O)[C@@H]1Cc2cc3ccc(=O)oc3cc2O1`, the Kd is > 4 mM (inactive).

As for `CN(C)c1nc(N2CCOCC2)c2cnn(C)c2n1`, the Kd is > 4 mM (inactive).

Turning to `CCN(CC)C(=O)c1n[nH]c(=O)c2ccccc12`, the Kd was > 4 mM (inactive).

On to `CCOC(=O)N1CCN(c2ncnc3c2cnn3C)CC1`, for which the Kd was > 4 mM (inactive).

Regarding `CC(=O)Oc1c(C)c(C)c2c(c1C)CCC(C)(CCCC(C)CCCC(C)CCCC(C)C)O2` (centres undefined), the Kd was > 4 mM (inactive).

With `CC(=O)Nc1ccc(S(=O)(=O)Nc2cc(C)on2)cc1`, the Kd was > 4 mM (inactive).

As to `COc1ccc2[nH]cc(CCN(C)C)c2c1`, the Kd is > 4 mM (inactive).

For `CC1CCC2(OC1)OC1CC3C4CCC5C[C@@H](O)CCC5(C)C4=CCC3(C)C1[C@@H]2C` (some centres undefined), the Kd is > 4 mM (inactive).

As to `O=c1c(-c2cccs2)[n+]([O-])c2ccccc2n1O`, the Kd was > 4 mM (inactive).

For `S=c1nc(Cc2ccccc2)[nH][nH]1`, the Kd was > 4 mM (inactive).

Turning to `CCC[C@H]1CC2=C(C[C@@H](CC)CC3=C1C(=O)OC3=O)C(=O)OC2=O`, the Kd is > 4 mM (inactive).

On to `O=C(Cn1cncn1)c1ccc(F)c(F)c1`, for which the Kd is > 4 mM (inactive).

Regarding `COCCn1c(N)nc2c1c(=O)[nH]c(=O)n2C`, the Kd was > 4 mM (inactive).

On to `CCOc1cc(S(=O)(=O)N2CCOCC2)ccc1F`, for which the Kd was > 4 mM (inactive).

Regarding `COc1cccc(OC)c1C(=O)N1CCOCC1`, the Kd is > 4 mM (inactive).

As for `COc1ccc(Cl)cc1-c1n[nH]c(=S)n1C`, the Kd was > 4 mM (inactive).

Take `CCOC(=O)CNc1ncnc2c1nnn2CC`: the Kd is > 4 mM (inactive).

On to `C=C1C(=O)O[C@@H]2C3OC3(C)CC/C=C(\C)CC[C@@H]12` (some centres undefined), for which the Kd was > 4 mM (inactive).

For `CN(C)C(=O)CCNS(=O)(=O)c1ccccc1`, the Kd is > 4 mM (inactive).

In the case of `COc1cc(OC)c2c(=O)c(-c3ccc4c(c3)OCO4)coc2c1`, the Kd was > 4 mM (inactive).

Consider `NC1=NC(=O)/C(=C\c2cccc(C(=O)O)c2)S1`, for which the Kd is > 4 mM (inactive).

Take `C[C@@H]1OC(O[C@H]2C(O[C@H]3CC[C@@]4(C)C(CC[C@]5(C)C4CC=C4C6CC(C)(C)CC[C@]6(C(=O)O)CC[C@]45C)[C@]3(C)CO)OC[C@H](O)[C@@H]2O)[C@H](O)[C@H](O)[C@H]1O` (some centres undefined): the Kd is > 4 mM (inactive).

As for `COc1cc([C@@H]2c3cc4c(cc3[C@H](O)[C@H]3COC(=O)[C@@H]23)OCO4)cc(OC)c1OC`, the Kd was > 4 mM (inactive).

On to `CN1CCN(CC(=O)Nc2ccccc2)CC1`, for which the Kd is > 4 mM (inactive).

As to `CNC(=O)C(=O)Nc1cccc(Cl)c1`, the Kd was > 4 mM (inactive).

Turning to `O=c1cc(CO)oc(CN2CCCCC2)c1O`, the Kd is > 4 mM (inactive).

Take `CC(=O)NC(=S)Nc1ccc(C(C)=O)cc1`: the Kd is > 4 mM (inactive).

Take `c1cncc(C2CCCCN2)c1` (centres undefined): the Kd was > 4 mM (inactive).

For `O=C(O)c1cc2ccccc2[nH]1`, the Kd was > 4 mM (inactive).

Turning to `O=C(Nc1cnccn1)c1cccs1`, the Kd is > 4 mM (inactive).

On to `CC1(C)CN=C(Nc2nc3ccccc3s2)S1`, for which the Kd was > 4 mM (inactive).

For the compound `Fc1cc2nccnc2cc1N1CCSCC1`, the Kd was > 4 mM (inactive).

As for `NCC(N)C(=O)c1ccccc1` (centres undefined), the Kd was > 4 mM (inactive).

For the compound `COC(=O)[C@@H]1OC(=O)[C@H]2O[C@@]23[C@@]1(C)CCC1[C@@]2(C)CCC(=O)C(C)(C)C2C[C@@H](OC(C)=O)[C@]13C` (some centres undefined), the Kd was > 4 mM (inactive).

As for `NC(=O)c1ccsc1NC(=O)c1ccccc1[N+](=O)[O-]`, the Kd was > 4 mM (inactive).

`O=C(O)C1CC(=O)N(Cc2cccs2)C1` (centres undefined): the Kd is > 4 mM (inactive).

Regarding `O=S1(=O)CCC(NC(=S)Nc2ccccc2)C1` (centres undefined), the Kd was > 4 mM (inactive).

As for `CC(=O)NC1C(=O)Nc2c(C)cc(C)cc21` (centres undefined), the Kd is > 4 mM (inactive).

Regarding `COc1ccc2c(c1)OC[C@@H](Cc1ccc(OC)c(OC)c1)[C@H]2O`, the Kd is > 4 mM (inactive).

In the case of `CC1CCc2cc(F)ccc2N1C(=O)c1ccc(=O)[nH]n1` (centres undefined), the Kd was > 4 mM (inactive).
